# Reference: ChEMBL document CHEMBL1275550, “In vitro activity of doripenem, a carbapenem for the treatment of challenging infections caused by gram-negative bacteria, against recent clinical isolates from the United States” (2008)
# Legend:
# Pseudomonas aeruginosa [1] = experiment: Antimicrobial activity against Pseudomonas aeruginosa isolated from ICU patient assessed as intermediate isolate by broth microdilution method
# Pseudomonas aeruginosa [2] = experiment: Antimicrobial activity against Ceftazidime susceptible Pseudomonas aeruginosa by broth microdilution method; assay type: functional
# Pseudomonas aeruginosa [3] = experiment: Antimicrobial activity against Pseudomonas aeruginosa isolated from non-ICU patient by broth microdilution method; assay type: functional
# Citrobacter [4] = experiment: Antimicrobial activity against Citrobacter with derepressed AmpC beta-lactamsae assessed as susceptible isolate by broth microdilution method; assay type: functional
# Klebsiella pneumoniae [5] = experiment: Antimicrobial activity against Klebsiella pneumoniae assessed as susceptible isolate by broth microdilution method; assay type: functional
# Serratia marcescens [6] = experiment: Antimicrobial activity against Ceftazidime susceptible Serratia marcescens assessed as susceptible isolate by broth microdilution method; assay type: functional
# Serratia marcescens [7] = experiment: Antimicrobial activity against Ceftazidime susceptible Serratia marcescens assessed as intermediate isolate by broth microdilution method; assay type: functional
# Enterobacteriaceae [8] = experiment: Antimicrobial activity against ceftazidime-susceptible Enterobacteriaceae by broth microdilution method; assay type: functional
# Enterobacter cloacae [9] = experiment: Antimicrobial activity against Enterobacter cloacae with derepressed AmpC beta-lactamsae by broth microdilution method; assay type: functional
# Klebsiella pneumoniae [10] = experiment: Antimicrobial activity against ESBL producing Klebsiella pneumoniae by broth microdilution method; assay type: functional
# Serratia marcescens [11] = experiment: Antimicrobial activity against Ceftazidime susceptible Serratia marcescens assessed as resistant isolate by broth microdilution method; assay type: functional
# Enterobacter cloacae [12] = experiment: Antimicrobial activity against Enterobacter cloacae with derepressed AmpC beta-lactamsae assessed as intermediate isolate by broth microdilution method; assay type: functional
# Escherichia coli [13] = experiment: Antimicrobial activity against Non-ESBL Escherichia coli assessed as susceptible isolate by broth microdilution method; assay type: functional
# Proteus mirabilis [14] = experiment: Antimicrobial activity against ESBL producing Proteus mirabilis assessed as intermediate isolate by broth microdilution method; assay type: functional
# Acinetobacter [15] = experiment: Antimicrobial activity against imipenem non-susceptible Acinetobacter assessed as resistant isolate by broth microdilution method; assay type: functional
# Streptococcus pneumoniae = experiment: Antimicrobial activity against penicillin-susceptible Streptococcus pneumoniae by broth microdilution method; assay type: functional; conditions: Streptococcus pneumoniae
# Pseudomonas aeruginosa [16] = experiment: Antimicrobial activity against imipenem non-susceptible Pseudomonas aeruginosa assessed as intermediate isolate by broth microdilution method; assay type: functional
# Proteus mirabilis [17] = experiment: Antimicrobial activity against ESBL producing Proteus mirabilis by broth microdilution method; assay type: functional
# Acinetobacter [18] = experiment: Antimicrobial activity against imipenem susceptible Acinetobacter by broth microdilution method; assay type: functional
# Pseudomonas aeruginosa [19] = experiment: Antimicrobial activity against imipenem susceptible Pseudomonas aeruginosa assessed as susceptible isolate by broth microdilution method; assay type: functional
# Staphylococcus = experiment: Antimicrobial activity against methicillin-susceptible coagulase-negative Staphylococcus by broth microdilution method; assay type: functional
# Pseudomonas aeruginosa [20] = experiment: Antimicrobial activity against Ceftazidime susceptible Pseudomonas aeruginosa assessed as resistant isolate by broth microdilution method; assay type: functional
# Citrobacter [21] = experiment: Antimicrobial activity against Citrobacter with nonderepressed AmpC beta-lactamsae assessed as intermediate isolate by broth microdilution method; assay type: functional
# Acinetobacter [22] = experiment: Antimicrobial activity against Acinetobacter by broth microdilution method; assay type: functional
# Klebsiella pneumoniae [23] = experiment: Antimicrobial activity against Non-ESBL Klebsiella pneumoniae assessed as susceptible isolate by broth microdilution method; assay type: functional
# Escherichia coli [24] = experiment: Antimicrobial activity against Non-ESBL Escherichia coli assessed as intermediate isolate by broth microdilution method; assay type: functional
# Pseudomonas aeruginosa [25] = experiment: Antimicrobial activity against Ceftazidime non-susceptible Pseudomonas aeruginosa assessed as intermediate isolate by broth microdilution method; assay type: functional
# Enterobacteriaceae [26] = experiment: Antimicrobial activity against Ceftazidime non-susceptible Enterobacteriaceae assessed as intermediate isolate by broth microdilution method; assay type: functional
# Pseudomonas aeruginosa [27] = experiment: Antimicrobial activity against Ceftazidime non-susceptible Pseudomonas aeruginosa assessed as susceptible isolate by broth microdilution method; assay type: functional
# Escherichia coli [28] = experiment: Antimicrobial activity against Non-ESBL Escherichia coli by broth microdilution method; assay type: functional
# Klebsiella pneumoniae [29] = experiment: Antimicrobial activity against ESBL producing Klebsiella pneumoniae assessed as intermediate isolate by broth microdilution method; assay type: functional
# Pseudomonas aeruginosa [30] = experiment: Antimicrobial activity against Pseudomonas aeruginosa assessed as susceptible isolate by broth microdilution method; assay type: functional
# Serratia marcescens [31] = experiment: Antimicrobial activity against Ceftazidime non-susceptible Serratia marcescens assessed as susceptible isolate by broth microdilution method; assay type: functional
# Citrobacter [32] = experiment: Antimicrobial activity against Citrobacter by broth microdilution method; assay type: functional
# Enterobacteriaceae [33] = experiment: Antimicrobial activity against ceftazidime-susceptible Enterobacteriaceae assessed as susceptible isolate by broth microdilution method; assay type: functional
# Acinetobacter [34] = experiment: Antimicrobial activity against imipenem susceptible Acinetobacter assessed as intermediate isolate by broth microdilution method; assay type: functional
# Proteus mirabilis [35] = experiment: Antimicrobial activity against Non-ESBL Proteus mirabilis by broth microdilution method; assay type: functional
# Enterobacteriaceae [36] = experiment: Antimicrobial activity against ceftazidime-susceptible Enterobacteriaceae assessed as intermediate isolate by broth microdilution method; assay type: functional
# Enterobacteriaceae [37] = experiment: Antimicrobial activity against ceftazidime-susceptible Enterobacteriaceae assessed as resistant isolate by broth microdilution method; assay type: functional
# Serratia marcescens [38] = experiment: Antimicrobial activity against Ceftazidime non-susceptible Serratia marcescens assessed as intermediate isolate by broth microdilution method; assay type: functional
# Pseudomonas aeruginosa [39] = experiment: Antimicrobial activity against Pseudomonas aeruginosa isolated from non-ICU patient assessed as resistant isolate by broth microdilution method
# Citrobacter [40] = experiment: Antimicrobial activity against Citrobacter with derepressed AmpC beta-lactamsae by broth microdilution method; assay type: functional
# Enterobacteriaceae [41] = experiment: Antimicrobial activity against Enterobacteriaceae assessed as susceptible isolate by broth microdilution method; assay type: functional
# Enterobacteriaceae [42] = experiment: Antimicrobial activity against Enterobacteriaceae by broth microdilution method; assay type: functional
# Pseudomonas aeruginosa [43] = experiment: Antimicrobial activity against Ceftazidime non-susceptible Pseudomonas aeruginosa assessed as resistant isolate by broth microdilution method; assay type: functional
# Enterobacter cloacae [44] = experiment: Antimicrobial activity against Enterobacter cloacae assessed as susceptible isolate by broth microdilution method; assay type: functional
# Enterobacter cloacae [45] = experiment: Antimicrobial activity against Enterobacter cloacae with nonderepressed AmpC beta-lactamsae assessed as intermediate isolate by broth microdilution method; assay type: functional
# Proteus mirabilis [46] = experiment: Antimicrobial activity against Non-ESBL Proteus mirabilis assessed as intermediate isolate by broth microdilution method; assay type: functional
# Serratia marcescens [47] = experiment: Antimicrobial activity against Serratia marcescens assessed as susceptible isolate by broth microdilution method; assay type: functional
# Pseudomonas aeruginosa [48] = experiment: Antimicrobial activity against Pseudomonas aeruginosa isolated from ICU patient assessed as resistant isolate by broth microdilution method
# Pseudomonas aeruginosa [49] = experiment: Antimicrobial activity against Pseudomonas aeruginosa isolated from ICU patient assessed as susceptible isolate by broth microdilution method
# Pseudomonas aeruginosa [50] = experiment: Antimicrobial activity against imipenem susceptible Pseudomonas aeruginosa assessed as intermediate isolate by broth microdilution method; assay type: functional
# Acinetobacter [51] = experiment: Antimicrobial activity against imipenem non-susceptible Acinetobacter assessed as susceptible isolate by broth microdilution method; assay type: functional
# [52] = Staphylococcus, read-out: MIC50
structure (smiles),measurement,setting,value
C[C@@H](O)[C@H]1C(=O)N2C(C(=O)O)=C(SCCNC=N)C[C@H]12 [IMIPENEM ANHYDROUS],Activity,Pseudomonas aeruginosa [1],5.8%
same,MIC50,Pseudomonas aeruginosa [2],4 µg/mL
same,MIC90,Pseudomonas aeruginosa [2],16 µg/mL
same,MIC50,Pseudomonas aeruginosa [3],4 µg/mL
same,MIC90,Pseudomonas aeruginosa [3],32 µg/mL
same,Activity,Citrobacter [4],100%
same,Activity,Klebsiella pneumoniae [5],99.7%
same,Activity,Serratia marcescens [6],98.9%
same,Activity,Serratia marcescens [7],0.3%
same,MIC50,Enterobacteriaceae [8],0.5 µg/mL
same,MIC90,Enterobacteriaceae [8],2 µg/mL
same,MIC50,Enterobacter cloacae [9],1 µg/mL
same,MIC90,Enterobacter cloacae [9],2 µg/mL
same,MIC50,Klebsiella pneumoniae [10],0.5 µg/mL
same,MIC90,Klebsiella pneumoniae [10],1 µg/mL
same,Activity,Serratia marcescens [11],0.8%
same,Activity,Enterobacter cloacae [12],0%
same,Activity,Escherichia coli [13],100%
same,Activity,Proteus mirabilis [14],0%
same,Activity,Acinetobacter [15],96.1%
same,MIC50,Streptococcus pneumoniae,≤ 0.015 µg/mL
same,MIC90,Streptococcus pneumoniae; read-out: MIC90,≤ 0.015 µg/mL
same,Activity,Pseudomonas aeruginosa [16],32.4%
same,MIC,Proteus mirabilis [17],0.5 µg/mL
same,MIC50,Acinetobacter [18],0.5 µg/mL
same,MIC90,Acinetobacter [18],4 µg/mL
same,Activity,Pseudomonas aeruginosa [19],100%
same,MIC50,Staphylococcus; [52],≤ 0.015 µg/mL
same,MIC90,"Staphylococcus; Staphylococcus, read-out: MIC90",0.03 µg/mL
same,Activity,Pseudomonas aeruginosa [20],13.1%
same,Activity,Citrobacter [21],0%
same,MIC50,Acinetobacter [22],1 µg/mL
same,MIC90,Acinetobacter [22],> 32 µg/mL
same,Activity,Klebsiella pneumoniae [23],99.8%
same,Activity,Escherichia coli [24],0%
same,Activity,Pseudomonas aeruginosa [25],8.2%
same,Activity,Enterobacteriaceae [26],1.7%
same,Activity,Pseudomonas aeruginosa [27],55.5%
same,MIC50,Escherichia coli [28],0.25 µg/mL
same,MIC90,Escherichia coli [28],0.5 µg/mL
same,Activity,Klebsiella pneumoniae [29],2.3%
same,Activity,Pseudomonas aeruginosa [30],76.3%
same,Activity,Serratia marcescens [31],100%
same,MIC50,Citrobacter [32],1 µg/mL
same,MIC90,Citrobacter [32],2 µg/mL
same,Activity,Enterobacteriaceae [33],99.6%
same,Activity,Acinetobacter [34],0%
same,MIC50,Proteus mirabilis [35],2 µg/mL
same,MIC90,Proteus mirabilis [35],4 µg/mL
same,Activity,Enterobacteriaceae [36],0.3%
same,Activity,Enterobacteriaceae [37],0.1%
same,Activity,Serratia marcescens [38],0%
same,Activity,Pseudomonas aeruginosa [39],17.2%
same,MIC50,Citrobacter [40],1 µg/mL
same,MIC90,Citrobacter [40],2 µg/mL
same,Activity,Enterobacteriaceae [41],99.4%
same,MIC50,Enterobacteriaceae [42],0.5 µg/mL
same,MIC90,Enterobacteriaceae [42],2 µg/mL
same,Activity,Pseudomonas aeruginosa [43],36.4%
same,Activity,Enterobacter cloacae [44],99.6%
same,Activity,Enterobacter cloacae [45],0.5%
same,Activity,Proteus mirabilis [46],2.5%
same,Activity,Serratia marcescens [47],98.9%
same,Activity,Pseudomonas aeruginosa [48],26.6%
same,Activity,Pseudomonas aeruginosa [49],67.6%
same,Activity,Pseudomonas aeruginosa [50],0%
same,Activity,Acinetobacter [51],0%
C[C@@H](O)[C@H]1C(=O)N2C(C(=O)O)=C(S[C@@H]3CN[C@H](C(=O)N(C)C)C3)[C@H](C)[C@H]12 [MEROPENEM],Activity,Pseudomonas aeruginosa [1],7.9%
same,MIC50,Pseudomonas aeruginosa [2],1 µg/mL
same,MIC90,Pseudomonas aeruginosa [2],8 µg/mL
same,MIC50,Pseudomonas aeruginosa [3],1 µg/mL
same,MIC90,Pseudomonas aeruginosa [3],16 µg/mL
same,Activity,Citrobacter [4],100%
same,Activity,Klebsiella pneumoniae [5],99.7%
same,Activity,Serratia marcescens [6],99.2%
same,Activity,Serratia marcescens [7],0%
same,MIC50,Enterobacteriaceae [8],0.06 µg/mL
same,MIC90,Enterobacteriaceae [8],0.12 µg/mL
same,MIC50,Enterobacter cloacae [9],0.25 µg/mL
same,MIC90,Enterobacter cloacae [9],0.5 µg/mL
same,MIC50,Klebsiella pneumoniae [10],0.06 µg/mL
same,MIC90,Klebsiella pneumoniae [10],0.25 µg/mL
same,Activity,Serratia marcescens [11],0.8%
same,Activity,Enterobacter cloacae [12],0%
same,Activity,Escherichia coli [13],100%
same,Activity,Proteus mirabilis [14],0%
same,Activity,Acinetobacter [15],100%
same,MIC50,Streptococcus pneumoniae,≤ 0.015 µg/mL
same,Activity,Pseudomonas aeruginosa [16],16.9%
same,MIC,Proteus mirabilis [17],0.12 µg/mL
same,MIC50,Acinetobacter [18],1 µg/mL
same,MIC90,Acinetobacter [18],4 µg/mL
same,Activity,Pseudomonas aeruginosa [19],98.5%
same,MIC50,Staphylococcus,0.12 µg/mL
same,MIC50,Staphylococcus; [52],0.06 µg/mL
same,Activity,Pseudomonas aeruginosa [20],6.5%
same,Activity,Citrobacter [21],0%
same,MIC50,Acinetobacter [22],1 µg/mL
same,MIC90,Acinetobacter [22],> 32 µg/mL
same,Activity,Klebsiella pneumoniae [23],99.8%
same,Activity,Escherichia coli [24],0%
same,Activity,Pseudomonas aeruginosa [25],3.6%
same,Activity,Enterobacteriaceae [26],0.7%
same,Activity,Pseudomonas aeruginosa [27],60.9%
same,MIC50,Escherichia coli [28],0.03 µg/mL
same,MIC90,Escherichia coli [28],0.06 µg/mL
same,Activity,Klebsiella pneumoniae [29],0%
same,Activity,Pseudomonas aeruginosa [30],85.3%
same,Activity,Serratia marcescens [31],100%
same,MIC50,Citrobacter [32],0.06 µg/mL
same,MIC90,Citrobacter [32],0.12 µg/mL
same,Activity,Enterobacteriaceae [33],99.6%
same,Activity,Acinetobacter [34],1.7%
same,MIC50,Proteus mirabilis [35],0.12 µg/mL
same,MIC90,Proteus mirabilis [35],0.25 µg/mL
same,Activity,Enterobacteriaceae [36],0%
same,Activity,Enterobacteriaceae [37],0.1%
same,Activity,Serratia marcescens [38],0%
same,Activity,Pseudomonas aeruginosa [39],12.4%
same,MIC50,Citrobacter [40],0.12 µg/mL
same,MIC90,Citrobacter [40],0.25 µg/mL
same,Activity,Enterobacteriaceae [41],99.8%
same,MIC50,Enterobacteriaceae [42],0.06 µg/mL
same,MIC90,Enterobacteriaceae [42],0.12 µg/mL
same,Activity,Pseudomonas aeruginosa [43],35.5%
same,Activity,Enterobacter cloacae [44],99.6%
same,Activity,Enterobacter cloacae [45],0.5%
same,Activity,Proteus mirabilis [46],0%
same,Activity,Serratia marcescens [47],99.2%
same,Activity,Pseudomonas aeruginosa [48],18%
same,Activity,Pseudomonas aeruginosa [49],74.1%
same,Activity,Pseudomonas aeruginosa [50],0.7%
same,Activity,Acinetobacter [51],0%
